# Tests used:
# Vero cells = assay: Cytotoxicity, Vero cells, Alamar Blue; type: cell-based; settings: 25 μM, 20 hours
# Summary of the method: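 Overnight-seeded Vero cells were exposed to 25 μM compound in 2% FBS-DMEM for 20 h at 37 °C, 5% CO2. Alamar Blue was then added for about 6 h. The absorbance ratio relative to compound-free control gave the living-cell ratio.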
# HSV-1 protease = target: T1, HSV-1 protease (Human herpesvirus 1, UniProt P10210); assay: Enzymatic assay for HSV-1 protease (assembly) inhibitor, fluorescence polarization; type: biochemical; settings: read-out: HSV-1 Enzyme inhibition IC50
# T1 construct: 6xHis (N); made in house; host or cells: baculovirus expression system
# Summary of the method: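 His6-tagged HSV-1 UL26 protease, baculovirus-expressed, preincubated 30 min at RT with compound in 1 M citrate/phosphate buffer pH 7.4 with 20% glycerol and 2 mM TCEP. A biotin-HTYLQA*SERFRIK-DTAF substrate was then cleaved for 60 min at RT, stopped with avidin, and read by fluorescence polarization versus no-inhibitor control.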
# HSV-1 = assay: Antiviral activity, HSV-1 in Vero cells, plaque method; type: cell-based; settings: Human alphaherpesvirus 1, 20 hours, 90% inhibition of plaque formation
# Summary of the method: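 HSV-1 (50,000 pfu in 2% FBS-DMEM) was added to Vero cells and removed, then the compound was applied in 2% FBS-DMEM for 20 h at 37° C, 5% CO2. After a freeze-thaw, virus yield in the medium was titred by plaque assay. EC90 is the concentration giving 90% plaque reduction versus the compound-free control.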
# T1 sequence (P10210 1-247): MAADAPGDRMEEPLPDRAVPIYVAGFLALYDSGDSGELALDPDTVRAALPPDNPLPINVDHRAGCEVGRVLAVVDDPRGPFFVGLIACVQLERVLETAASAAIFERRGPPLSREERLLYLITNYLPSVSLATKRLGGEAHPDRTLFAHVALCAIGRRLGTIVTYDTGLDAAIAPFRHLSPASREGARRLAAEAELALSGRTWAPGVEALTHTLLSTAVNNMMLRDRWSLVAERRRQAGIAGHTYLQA
IC50 (HSV-1 protease) [µM],EC90 (HSV-1) [µM],Structure (SMILES),Cell viability (% of control) (Vero cells) [%]
2.3,11.7,"Cc1c(NC(=O)OC(C)(C)C)ccc2nc(N(C)[C@@H](Cc3ccccc3)C(=O)N(C)CCc3ccncc3)oc(=O)c12 [Compound No.85, [5-Methyl-2-(methyl-{1S-[methyl-(2-pyridin-4-yl-ethyl)-carbamoyl]-2-phenyl-ethyl}-amino)-4-oxo-4H-benzo[d][1,3]oxazin-6-yl]-carbamic acid tert-butyl ester]",60.7
5.5,11.2,"Cc1c(NC(=O)OC(C)(C)C)ccc2nc(N3Cc4ccccc4C[C@H]3C(=O)NCc3ccncc3)oc(=O)c12 [Compound No.96, (5-Methyl-4-oxo-2-{3S-[(pyridin-4-ylmethyl)-carbamoyl]-3,4-dihydro-1H-isoquinolin-2-yl}-4H-benzo[d][1,3]oxazin-6-yl)-carbamic acid tert-butyl ester]",55.4
4.4,12.3,"Cc1c(NC(=O)OC(C)(C)C)ccc2nc(N3Cc4ccccc4C[C@H]3C(=O)NCc3cccnc3)oc(=O)c12 [Compound No.95, (5-Methyl-4-oxo-2-{3S-[(pyridin-3-ylmethyl)-carbamoyl]-3,4-dihydro-1H-isoquinolin-2-yl}-4H-benzo[d][1,3]oxazin-6-yl)-carbamic acid tert-butyl ester]",44.0
3.2,3.7,"Cc1c(NC(=O)OC(C)(C)C)ccc2nc(N[C@@H](CCc3ccccc3)C(=O)N(C)CCc3ccncc3)oc(=O)c12 [Compound No.56, (5-Methyl-2-{1S-[methyl-(2-pyridin-4-yl-ethyl)-carbamoyl]-3-phenyl-propylamino}-4-oxo-4H-benzo[d][1,3]oxazin-6-yl)-carbamic acid tert-butyl ester]",77.9
10.1,> 25,"Cc1c(NC(=O)OC(C)(C)C)ccc2nc(N[C@@H](CC(C)C)C(=O)NCc3ccncc3)oc(=O)c12 [Compound No.38, (5-Methyl-2-{3-methyl-1S-[(pyridin-4-ylmethyl)-carbamoyl]-butylamino}-4-oxo-4H-benzo[d][1,3]oxazin-6-yl)-carbamic acid tert-butyl ester]",105.0
2.1,12.1,"Cc1c(NC(=O)COCc2ccccc2)ccc2nc(NC(C)(C)C(=O)N(C)CCc3ccccn3)oc(=O)c12 [Compound No.184, 2-[6-(2-Benzyloxy-acetylamino)-5-methyl-4-oxo-4H-benzo[d][1,3]oxazin-2-ylamino]-2,N-dimethyl-N-(2-pyridin-2-yl-ethyl)-propionamide]",93.1
1.2,5.6,"Cc1c(NC(=O)c2ccc(C(F)(F)F)cc2)ccc2nc(NC(C)(C)C(=O)N(C)CCc3ccccn3)oc(=O)c12 [Compound No.146, N-(5-Methyl-2-{1-methyl-1-[methyl-(2-pyridin-2-yl-ethyl)-carbamoyl]-ethylamino}-4-oxo-4H-benzo[d][1,3]oxazin-6-yl)-4-trifluoromethyl-benzamide]",18.0
1.9,> 12.5,"Cc1c(NC(=O)c2scc(S(=O)(=O)C(C)C)c2Cl)ccc2nc(NC(C)(C)C(=O)N(C)CCc3ccccn3)oc(=O)c12 [Compound No.180, 3-Chloro-4-(propane-2-sulfonyl)-thiophene-2-carboxylic acid (5-methyl-2-{1-methyl-1-[methyl-(2-pyridin-2-yl-ethyl)-carbamoyl]-ethylamino}-4-oxo-4H-benzo[d][1,3]oxazin-6-yl)-amide]",87.4
0.7,> 12.5,"Cc1c(NC(=O)CCCNC(=O)c2ccccn2)ccc2nc(NC(C)(C)C(=O)N(C)CCc3ccccn3)oc(=O)c12 [Compound No.221, Pyridine-2-carboxylic acid [3-(5-methyl-2-{1-methyl-1-[methyl-(2-pyridin-2-yl-ethyl)-carbamoyl]-ethylamino}-4-oxo-4H-benzo[d][1,3]oxazin-6-ylcarbamoyl)-propyl]-amide]",105.3
> 20,> 25,"Cc1c(NC(=O)OC(C)(C)C)ccc2nc(N[C@H](C(=O)NCc3cccnc3)C(C)C)oc(=O)c12 [Compound No.24, (5-Methyl-2-{2-methyl-1S-[(pyridin-3-ylmethyl)-carbamoyl]-propylamino}-4-oxo-4H-benzo[d][1,3]oxazin-6-yl)-carbamic acid tert-butyl ester]",99.5
> 20,5.9,"Cc1c(NC(=O)OC(C)(C)C)ccc2nc(N[C@H](C(=O)N(C)CCc3ccccn3)C(C)(C)C)oc(=O)c12 [Compound No.44, (2-{2,2-dimethyl-1S-[methyl-(2-pyridin-2-yl-ethyl)-carbamoyl]-propylamino}-5-methyl-4-oxo-4H-benzo[d][1,3]oxazin-6-yl)-carbamic acid tert-butyl ester]",66.2
1.7,3.6,"CCCCc1ccc(C(=O)Nc2ccc3nc(NC(C)(C)C(=O)N(C)CCc4ccccn4)oc(=O)c3c2C)cc1 [Compound No.167, 4-Butyl-N-(5-methyl-2-{1-methyl-1-[methyl-(2-pyridin-2-yl-ethyl)-carbamoyl]-ethylamino}-4-oxo-4H-benzo[d][1,3]oxazin-6-yl)-benzamide]",−6.1
1.3,10.7,"COc1ccc(C(=O)Nc2ccc3nc(NC(C)(C)C(=O)N(C)CCc4ccccn4)oc(=O)c3c2C)cc1 [Compound No.163, 4-Methoxy-N-(5-methyl-2-{1-methyl-1-[methyl-(2-pyridin-2-yl-ethyl)-carbamoyl]-ethylamino}-4-oxo-4H-benzo[d][1,3]oxazin-6-yl)-benzamide]",66.0
2.5,> 12.5,"Cc1cc(C(=O)Nc2ccc3nc(NC(C)(C)C(=O)N(C)CCc4ccccn4)oc(=O)c3c2C)c(C(F)(F)F)o1 [Compound No.175, 5-Methyl-2-trifluoromethyl-furan-3-carboxylic acid (5-methyl-2-{1-methyl-1-[methyl-(2-pyridin-2-yl-ethyl)-carbamoyl]-ethylamino}-4-oxo-4H-benzo [d][1,3]oxazin-6-yl)-amide]",99.4
1.2,9,"Cc1c(NC(=O)c2cccc(OC(F)(F)F)c2)ccc2nc(NC(C)(C)C(=O)N(C)CCc3ccccn3)oc(=O)c12 [Compound No.172, N-(5-Methyl-2-{1-methyl-1-[methyl-(2-pyridin-2-yl-ethyl)-carbamoyl]-ethylamino}-4-oxo-4H-benzo[d][1,3]oxazin-6-yl)-3-trifluoromethoxy-benzamide]",17.4
1.7,11,"Cc1c(NC(=O)OC(C)(C)C)ccc2nc(N(C)[C@@H](Cc3ccccc3)C(=O)N(C)CCc3cccnc3)oc(=O)c12 [Compound No.84, [5-Methyl-2-(methyl-{1S-[methyl-(2-pyridin-3-yl-ethyl)-carbamoyl]-2-phenyl-ethyl}-amino)-4-oxo-4H-benzo[d][1,3]oxazin-6-yl]-carbamic acid tert-butyl ester]",37.6
5.2,10.1,"Cc1c(NC(=O)OC(C)(C)C)ccc2nc(N3Cc4ccccc4C[C@H]3C(=O)N(C)CCc3ccccn3)oc(=O)c12 [Compound No.99, (5-Methyl-2-{3S-[methyl-(2-pyridin-2-yl-ethyl)-carbamoyl]-3,4-dihydro-1H-isoquinolin-2-yl}-4-oxo-4H-benzo[d][1,3]oxazin-6-yl)-carbamic acid tert-butyl ester]",53.2
6.7,11.8,"Cc1c(NC(=O)c2ccc3ccccc3c2)ccc2nc(NC(C)(C)C(=O)N(C)CCc3ccccn3)oc(=O)c12 [Compound No.194, Naphthalene-2-carboxylic acid (5-methyl-2-{1-methyl-1-[methyl-(2-pyridin-2-yl-ethyl)-carbamoyl]-ethylamino}-4-oxo-4H-benzo[d][1,3]oxazin-6-yl)-amide]",71.8
7.4,> 12.5,"Cc1c(NC(=O)OC(C)(C)C)ccc2nc(N3CCCC[C@H]3C(=O)N(C)CCc3cccnc3)oc(=O)c12 [Compound No.107, (5-Methyl-2-{2S-[methyl-(2-pyridin-3-yl-ethyl)-carbamoyl]-piperidin-1-yl}-4-oxo-4H-benzo[d][1,3]oxazin-6-yl)-carbamic acid tert-butyl ester]",45.4
1.7,9.5,"Cc1c(NC(=O)OC(C)(C)C)ccc2nc(N(C)[C@@H](Cc3ccccc3)C(=O)NCCc3ccccn3)oc(=O)c12 [Compound No.81, (5-Methyl-2-{methyl-[2-phenyl-1S-(2-pyridin-2-yl-ethylcarbamoyl)-ethyl]-amino}-4-oxo-4H-benzo[d][1,3]oxazin-6-yl)-carbamic acid tert-butyl ester]",49.7
> 20,> 25,"Cc1c(NC(=O)OC(C)(C)C)ccc2nc(N[C@@H](Cc3ccccc3)C(=O)NCc3ccncc3)oc(=O)c12 [Compound No.31, (5-Methyl-4-oxo-2-{2-phenyl-1S-[(pyridin-4-ylmethyl)-carbamoyl]-ethylamino}-4H-benzo[d][1,3]oxazin-6-yl)-carbamic acid tert-butyl ester]",108.0

# — patent US20040116420A1 (priority 2001, published 2004)
